Results: publication PMC4906375, “Contribution of Amphipathicity and Hydrophobicity to the Antimicrobial Activity and Cytotoxicity of β-Hairpin Peptides” (ACS Infectious Diseases, 2016)
Converted amounts (≈) assume the structure as drawn. Residues, ends and D or L forms follow the SMILES beside them.

Assays:
A. baumannii ATCC 19606 = format: cell-based, Acinetobacter baumannii; details: ATCC 19606
Procedure: (§1) Both antibacterial and antifungal MIC assays were performed by a broth microdilution plate based method as per CLSI guidelines for antimicrobial susceptibility testing.[53],[54] […] Full assay details are included in the Supporting Information with a full list of strains tested in Table S1.
(§2) Antibacterial assay (Minimum Inhibitory Concentration [MIC]).
(§3) MIC assay was performed by a broth microdilution plate based method as per CLSI guidelines for antimicrobial susceptibility testing of aerobic bacteria.1 Compounds were prepared at 1.28 mg/mL solution in water. The tested strains, Table S1, were cultured in Luria broth (LB) (In Vitro Technologies, USB75852), at 37 °C overnight. A sample of culture was then diluted 40Pfold in fresh Muller Hinton broth (MHB) (Bacto laboratories, 211443) and incubated at 37 °C for 1.5P2 h. The compounds were serially diluted twoPfold across the wells, with compound concentrations ranging from 0.015 µg/mL to 512 µg/mL, plated in duplicate. The resultant midPlog phase cultures were diluted to the final concentration of 1×10^6 CFU/mL, then 50 µL was added to each well of the compoundP containing 96Pwell plates (Corning 3641, NonPbinding Surface [NBS]), giving a final compound concentration range of 0.008 µg/mL to 256 µg/mL and 5x10^5 CFU/mL. All the plates were covered and incubated at 37 °C for 18 h. MICs were determined visually, being defined as the lowest concentration showing no visible growth. Resazurin was added at 0.001% final concentration to each well and incubated for 2 h before MICs were rePread for confirmation using the colour change from blue to pink to indicate wells containing viable cells. The resazurin assay was added in some wells where some form of precipitate was present in otherwise clear wells, making it difficult to ascertain which wells had visible […]
(§4) Antifungal assay (Minimum Inhibitory Concentration [MIC]). MIC assay was performed by a broth microdilution plate based method as per CLSI guidelines for antimicrobial susceptibility testing.2 Fungi strains, Table S1, were cultured for 3 days on Yeast ExtractPPeptone Dextrose (YPD) (SigmaPAldrich, Y1500) agar at 30 °C. A yeast suspension of 1x10^6 to 5x10^6 CFU/mL was prepared from five colonies. These stock suspensions were diluted with Yeast Nitrogen Base (YNB) (Becton Dickinson, 233520) broth to a final concentration of 2.5 ×10^3 CFU/mL. All samples, compounds and standards were plated in 96Pwell plates (Corning 3641, NonPbinding Surface [NBS]), by adding 10 µL of 1.28 mg/mL stock solution to each well and 90 µL of media. Then, the samples were serial diluted (1:2) in 12 concentrations across the plate. The standard antifungal ranged from 256

[1] = Plasma protein binding, ultrafiltration; format: in vitro ADME; details: 100% human plasma, read-out: PPB (%) (converted)
Procedure: Plasma protein binding was performed using an ultrafiltration method.[58]
Plasma protein binding assay
Plasma protein binding was performed using an Ultrafiltration method.13 Fresh frozen human plasma was pooled from O Negative (Product number 1274512) blood from the R & D division of the Australian Red Cross Blood Services (Brisbane). Stock solutions (20 mg/mL) of the test compounds were prepared in H2O. Test compounds (40 µg/mL) were incubated in 100 % human plasma at 37 °C for 30 min (1 mL volume). For unfiltered samples, an aliquot (50 µL) was removed, diluted with PBS (50 µL) and quenched with icePcold precipitating solution comprising 0.5 µM carbutamide MS internal standard in acetonitrile : methanol : formic acid (1: 1 : 0.001). Samples were incubated at 4 °C for 30 min then centrifuged at 14000 × g for 8 min, with the clear supernatant transferred to a vial for LC/MS/MS analysis.
For filtered samples, the plasma sample (250 µL) was filtered using Amicon UltraP0.5 Centrifugal Filter Devices 30K NMWL at 14000 × g for 7 min and then an aliquot (50 µL) was processed as described for unfiltered samples. The fraction of unbound compound was calculated by determining the concentration of the filtered sample and the concentration of unfiltered sample. All samples were performed in triplicate with sulfamethoxazole as a […]

[2] = system: C. neoformans ATCC 208821; experiment: microbe, parasite or virus in culture; format: cell-based, Cryptococcus neoformans
Procedure: as §1, §2, §3
as §4, with “256 […]” for “256”
µg/mL to 0.12 µg/mL and compounds from 128 µg/mL to 0.06 µg/mL with final volumes of 50 µL per well, plated in duplicate. Then, 50 µL of the fungi suspension that was previously prepared in YNB broth to the final concentration of 2.5×10^3 CFU/mL, was added to each well of the compoundPcontaining plates, giving a final standard compound concentration range of 128 µg/mL to 0.06 µg/mL and tested compound from 64 µg/mL to 0.03 µg/mL. Plates were covered and incubated at 35 °C for 24 h. Candida albicans MICs were determined by measuring the absorbance at OD530. For Cryptococcus neoformans 10 µL of 0.06 % resazurin were added to the 24 h incubated plates. Then, these plates were incubated for another 3 h.
Cryptococcus neoformans MICs were determined by measuring the absorbance at OD570P600. […]

[3] = system: E. coli ATCC 25922 (control strain); format: cell-based, Escherichia coli; details: ATCC 25922
Procedure: as §1, §2, §3, §4

[4] = system: E. coli ATCC 700926 (K12); format: cell-based, Escherichia coli; details: ATCC 700926
Procedure: as §1, §2, §3, §4

E. coli MB 4902 (ΔlpxC) = format: cell-based, Escherichia coli; details: n = 4
Procedure: as §1, §2, §3, §4

Structure (SMILES)	MIC (A. baumannii ATCC 19606) [µg/mL]	fraction unbound [1]	MIC ([2]; ATCC 208821) [µg/mL]	MIC [3] [µg/mL]	MIC [4] [µg/mL]	MIC (E. coli MB 4902 (ΔlpxC)) [µg/mL]	MIC ([2]; C. neoformans ATCC 208821, n = 4) [µg/mL]
CC(C)[C@@H]1NC(=O)CNC(=O)[C@H](CC(N)=O)NC(=O)[C@H](CCCNC(=N)N)NC(=O)[C@H](Cc2ccc(O)cc2)NC(=O)[C@H](C(C)C)NC(=O)[C@@H]2CSSC[C@H](NC(=O)[C@H](C(C)C)NC(=O)[C@H](CCCNC(=N)N)NC1=O)C(=O)N[C@@H](Cc1ccc(O)cc1)C(=O)N[C@@H](CCCNC(=N)N)C(=O)N[C@@H](CCCNC(=N)N)C(=O)N[C@H](C(=O)N[C@@H](CC(N)=O)C(=O)O)CSSC[C@H](NC(=O)[C@H](Cc1ccccc1)NC(=O)CN)C(=O)N[C@@H](Cc1c[nH]c3ccccc13)C(=O)N[C@@H](Cc1ccc(O)cc1)C(=O)N[C@@H](C(C)C)C(=O)N2 [arenicin-3] (HELM PEPTIDE1{G.F.C.W.Y.V.C.V.Y.R.N.G.V.R.V.C.Y.R.R.C.N}$PEPTIDE1,PEPTIDE1,3:R3-20:R3|PEPTIDE1,PEPTIDE1,7:R3-16:R3$$$V2.0)	0.5 (≈ 0.191 µM)	0.32	8 (≈ 3.06 µM)	0.5 (≈ 0.191 µM)	0.25 (≈ 0.0957 µM)	0.125 (≈ 0.0478 µM)	
CC(C)[C@@H]1NC(=O)[C@H](CCCNC(=N)N)NC(=O)[C@H](Cc2ccccc2)NC(=O)[C@@H](NC(=O)[C@H](Cc2c[nH]c3ccccc23)NC(=O)[C@H](CCCNC(=N)N)NC(=O)[C@@H](N)CCCNC(=N)N)CSSC[C@@H](C(=O)N[C@@H](CCCNC(=N)N)C(N)=O)NC(=O)[C@H](CCCCN)NC(=O)[C@H](CCCNC(=N)N)NC(=O)[C@H](Cc2ccc(O)cc2)NC(=O)[C@@H]2CSSC[C@H](NC1=O)C(=O)N[C@@H](Cc1ccc(O)cc1)C(=O)N[C@@H](CCCNC(=N)N)C(=O)NCC(=O)N[C@@H](Cc1ccccc1)C(=O)N2 [polyphemusin-1] (HELM PEPTIDE1{R.R.W.C.F.R.V.C.Y.R.G.F.C.Y.R.K.C.R.[am]}$PEPTIDE1,PEPTIDE1,4:R3-17:R3|PEPTIDE1,PEPTIDE1,8:R3-13:R3$$$V2.0)	0.06 (≈ 0.0244 µM)	0.37	0.06 (≈ 0.0244 µM)	0.5 (≈ 0.204 µM)	0.06 (≈ 0.0244 µM)	0.03 (≈ 0.0122 µM)	
[H][C@]12CSSC[C@]([H])(NC(=O)[C@]([H])([C@@H](C)CC)NC(=O)CNC(=O)[C@H](CCCNC(=N)N)NC(=O)[C@H](Cc3ccc(O)cc3)NC1=O)C(=O)N[C@@H](Cc1ccc(O)cc1)C(=O)N[C@@H](CCCNC(=N)N)C(=O)N[C@@H](CCCNC(=N)N)C(=O)N[C@H](C(=O)N[C@@H](CCCNC(=N)N)C(N)=O)CSSC[C@H](NC(=O)[C@H](Cc1c[nH]c3ccccc13)NC(=O)[C@@H](N)CCCCN)C(=O)N[C@@H](Cc1ccccc1)C(=O)N[C@@H](CCCNC(=N)N)C(=O)N[C@@H](C(C)C)C(=O)N2 [tachyplesin-1] (HELM PEPTIDE1{K.W.C.F.R.V.C.Y.R.G.I.C.Y.R.R.C.R.[am]}$PEPTIDE1,PEPTIDE1,3:R3-16:R3|PEPTIDE1,PEPTIDE1,7:R3-12:R3$$$V2.0)	0.125 (≈ 0.0552 µM)	0.24	0.125 (≈ 0.0552 µM)	0.06 (≈ 0.0265 µM)	0.03 (≈ 0.0133 µM)	0.016 (≈ 0.00707 µM)	
CC[C@H](C)[C@H](NC(=O)[C@@H](NC(=O)[C@@H]1CCCN1C(=O)[C@@H](NC(=O)[C@@H]1CCCN1C(=O)[C@H](CCCCN)NC(=O)[C@H](CCCCN)NC(=O)[C@H](CO)NC(=O)CN)C(C)C)[C@@H](C)CC)C(=O)N[C@@H](Cc1ccc(O)cc1)C(=O)N[C@H]1CSSC[C@@H](C(=O)N[C@@H](CCC(N)=O)C(=O)N[C@@H](CCCNC(=N)N)C(=O)N[C@@H](CCSC)C(N)=O)NC(=O)[C@H](CCCCN)NC(=O)CNC(=O)[C@H]([C@@H](C)O)NC(=O)[C@H](CCCNC(=N)N)NC(=O)[C@H](CCCNC(=N)N)NC(=O)[C@H](CC(N)=O)NC1=O [thanatin]	>256	0.08		8 (≈ 3.29 µM)	8 (≈ 3.29 µM)	2 (≈ 0.822 µM)	64 (≈ 26.3 µM)
